In one series the test system is cucumber anthracnose. Description: Protectant activity in vivo (whole plant), cucumber anthracnose. Particulars: 400 mg/L; protectant activity. As for the experimental part:
(§1) The method is as followed: The whole plant is used in this test. The compound is dissolved in a proper solvent to get mother solution. The proper solvent is selected from acetone, methanol, DMF and so on according to their dissolving capability to the sample. […] The testing solution is sprayed to the host plant by a special plant sprayer. The plant is inoculated with fungus after 24 hours. According to the infecting characteristic of fungus, the plant is stored in a humidity chamber and then transferred into greenhouse after infection is finished. And the other plants are placed in greenhouse directly.

The next series relates to diamond back moth. The experiment in a line: Bioactivity test against diamond back moth (airbrush spray). Particulars: for control against diamond back moth (mortality): 600 ppm, after 72 h. In kind it is in vivo. The protocol: (§2) Compounds were dissolved in mixed solvent (acetone:methanol=1:1), and diluted to required concentration with water containing 0.1% of tween 80.
(§3) Diamond back moth, armyworm, peach aphid and carmine spider mite were used as targets and the method of spraying by airbrush was used for determination of insecticidal bioassays.
The method of spraying by airbrush: The cabbage leaves were made into plates of 2 cm diameter by use of punch. A test solution (0.5 ml) was sprayed by airbrush at the pressure of 0.7 kg/cm^2 to both sides of every plate. 10 Second instar larvae were put into the petri-dishes after the leaf disc air-dried and 3 replicates were set for each treatment. Then the insects were maintained in observation room (25° C., 60˜70% R.H.). Scores were conducted and mortalities were calculated after 72 h.

Series [1] relates to Green peach aphids (Myzus Persicae Sulzer). Description: Bioactivity test against green peach aphid (airbrush foliar spray). The series is classed as in vivo. The protocol: as §2, §3
Method: Filter papers were put in culture dishes (Diameter=6 cm), and water was dripped on filter papers for preserving moisture. Green peach aphids (Myzus Persicae Sulzer) were maintained on cabbage. Leaves (Diameter=3 cm) of approximately 15-30 aphids were put in the culture dishes. Bioactivity tests were used the method of Airbrush Foliar Spray, pressure=10 psi (0.7 kg/cm2), spray volume=0.5 mL. The studies were conducted at […] 25±1 C in incubator cabinets with 60±5% RH. Survey the survival aphids after 48 h and calculate the death rates.

The subject of the next series is wheat powdery mildew. Description: Protectant activity in vivo (whole plant), wheat powdery mildew. To be noted: protectant activity. The protocol:
as §1

Another series deals with cucumber downy mildew. The experiment in a line: Protectant activity in vivo (whole plant), cucumber downy mildew. Particulars: for control effect against cucumber downy mildew(%): protectant activity. The protocol:
as §1

The subject of the next series is cucumber gray mold. Description: Fungicidal activity in vitro (96-cell culture board), cucumber gray mold. In kind it is cell-based. Particulars: read-out: inhibition rate against cucumber gray mold.
For a further series, the system named is rice blast. Description: microbe, parasite or virus in culture. In kind it is cell-based. Particulars: for inhibition at 25 ppm: Pyricularia oryzae, read-out: inhibition rate against rice blast, 25 ppm, in vitro; for inhibition rate against rice blast: in vitro.
The subject of another series is corn rust. Description: Protectant activity in vivo (whole plant), corn rust. Particulars: 1.6 ppm. As for the experimental part: as §1
The subject of a further series is carmine spider mite. The experiment in a line: Bioactivity test against carmine spider mite (airbrush spray). In kind it is in vivo. To be noted: after 72 hrs. The protocol:
as §2, §3
The method: shoots with two true leaves in pot were taken, the healthy adults of carmine spider mite were inoculated to the leaves. The adults were counted and then sprayed with airbrush at the pressure of 0.7 kg/cm^2 and at dose of 0.5 ml. 3 replicates were set for each treatment. And then they were maintained in standard observation room. Scores were conducted and mortalities were calculated after 72 hrs.

Setting [2] is: Tetranychus cinnabarinus, 72 h, read-out: control against carmine spider mite (mortality).

For `Cc1cc(N(C)Cc2cnn(-c3ccccc3)c2)nc(C(C)C)n1` [CK4, reference compound], the “control effect against cucumber anthracnose (%)” value in the series on cucumber anthracnose came out at 0%. For the same molecule, in the series with diamond back moth (600 mg/L), the “Insecticidal activity against diamond back moth (%)” value turned out to be 0%. Further, in [1] (600 mg/L), the “Insecticidal activity against peach aphid (%)” value was determined as 0%. Moreover, in the series with wheat powdery mildew (400 mg/L), the “control effect against wheat powdery mildew (%)” value is recorded as 0%. For the same molecule, the “control effect against cucumber downy mildew(%)” value in the series with cucumber downy mildew (25 mg/L) came to 0%; in the series with cucumber downy mildew (50 mg/L), 40%; in the series with cucumber downy mildew (100 mg/L) it was 50%; in the series on cucumber downy mildew (400 mg/L), 100%.
Molecule `CCc1ncnc(NCCc2cnn(Cc3ccc(Cl)cc3)c2)c1Cl` [Compound 5657] came in with a melting point of 109.9 °C. The inhibition at 25 ppm in the series on cucumber gray mold was greater than 80%. In the series with rice blast, the inhibition at 25 ppm is greater than 80%.
For the molecule `Cc1nc(C)c(C)c(N(C)Cc2cnn(-c3ccccc3)c2)n1` [CK3, reference compound], the “control effect against cucumber anthracnose (%)” value with cucumber anthracnose stood at 0%. Also, the “Insecticidal activity against diamond back moth (%)” value in the series on diamond back moth (600 mg/L) amounted to 0%. In addition, the “Insecticidal activity against peach aphid (%)” value in [1] (10 mg/L) was 0%; in [1] (100 mg/L) it was 19%; in [1] (600 mg/L), 77%. The “control effect against wheat powdery mildew (%)” value in the series on wheat powdery mildew (400 mg/L) amounted to 0%. For the same molecule, the “control effect against cucumber downy mildew(%)” value is on record as 0% in the series with cucumber downy mildew (25 mg/L), 30% in the series on cucumber downy mildew (50 mg/L), 40% with cucumber downy mildew (100 mg/L) and 100% with cucumber downy mildew (400 mg/L).
With `FC(F)c1ncnc(NCCc2cnn(-c3ccc(Cl)cc3Cl)c2)c1Cl` [Compound 817], the “protectant activity against corn rust in vivo” value in the series with corn rust is given as 70%. For the same molecule, the results for the “Insecticidal activity against diamond back moth (%)” value with diamond back moth (10 mg/L), in the series on diamond back moth (100 mg/L) and with diamond back moth (600 mg/L) were 21%, 70% and 100%, respectively. The “control against diamond back moth (mortality)” value with diamond back moth was found to be 100%. In the series on carmine spider mite (10 ppm), the “control against carmine spider mite (mortality)” value turned out to be 72%. For the same molecule, the “Insecticidal activity against peach aphid (%)” value in [1] (100 mg/L) and in [1] (600 mg/L) was 100% in each case. The “control effect against wheat powdery mildew (%)” value in the series with wheat powdery mildew (6.25 mg/L), with wheat powdery mildew (25 mg/L), in the series on wheat powdery mildew (100 mg/L) and in the series with wheat powdery mildew (400 mg/L) was 100% throughout.
As for `CCc1ncnc(NCCc2cnn(-c3ccc(Cl)cc3)c2)c1Cl` [Compound 537], in the series with cucumber gray mold, the inhibition at 25 ppm was greater than 80%. The “control effect against cucumber downy mildew(%)” value with cucumber downy mildew (12.5 mg/L), with cucumber downy mildew (25 mg/L), in the series on cucumber downy mildew (50 mg/L), with cucumber downy mildew (100 mg/L) and in the series on cucumber downy mildew (400 mg/L) was 100% throughout. For the same molecule, the “protectant activity against cucumber downy mildew in vivo” value in the series on cucumber downy mildew (6.25 ppm) is on record as 98%.
Consider `CCc1ncnc(NCCc2cnn(C(C)(C)C)c2)c1Cl` [Compound 23], for which, in the series on carmine spider mite (Tetranychus cinnabarinus, 72 h, 100 ppm, read-out: control against carmine spider mite (mortality)), the mortality at 100 ppm was greater than 80%. For the same molecule, the mortality at 600 ppm with carmine spider mite (setting [2]) is greater than 80%. Further, the “Insecticidal activity against peach aphid (%)” value is on record as 94% in [1] (100 mg/L) and 100% in series [1] (600 mg/L). For the same molecule, the “control effect against wheat powdery mildew (%)” value in the series on wheat powdery mildew (100 mg/L) came out at 98%; in the series with wheat powdery mildew (400 mg/L), 100%.
For `CCc1ncnc(NCc2cnn(-c3ccccc3)c2C(F)(F)F)c1Cl` [CK2, reference compound], in the series on diamond back moth (600 mg/L), the “Insecticidal activity against diamond back moth (%)” value is 20%. The results for the “Insecticidal activity against peach aphid (%)” value in [1] (10 mg/L), in series [1] (100 mg/L) and in series [1] (600 mg/L) were 0%, 55% and 100%, respectively. In addition, the “control effect against wheat powdery mildew (%)” value is 0% in the series on wheat powdery mildew (6.25 mg/L), 20% with wheat powdery mildew (25 mg/L), 50% in the series on wheat powdery mildew (100 mg/L) and 100% in the series on wheat powdery mildew (400 mg/L). Also, the “control effect against cucumber downy mildew(%)” value in the series on cucumber downy mildew (25 mg/L) is on record as 20%; in the series on cucumber downy mildew (50 mg/L) it was 75%; with cucumber downy mildew (100 mg/L) it was 100%; in the series with cucumber downy mildew (400 mg/L) it was 100%.
As for `CCc1ncnc(NCc2cnn(-c3ccccc3)c2C)c1Cl` [CK1, reference compound], the “Insecticidal activity against diamond back moth (%)” value in the series with diamond back moth (600 mg/L) came out at 43%. Further, the “Insecticidal activity against peach aphid (%)” value was 0% in series [1] (10 mg/L), 0% in series [1] (100 mg/L) and 91% in [1] (600 mg/L). Also, the “control effect against wheat powdery mildew (%)” value in the series with wheat powdery mildew (6.25 mg/L) is 0%; with wheat powdery mildew (25 mg/L), 40%; with wheat powdery mildew (100 mg/L) it was 60%; in the series on wheat powdery mildew (400 mg/L), 100%. The “control effect against cucumber downy mildew(%)” value in the series with cucumber downy mildew (25 mg/L) came out at 20%; in the series on cucumber downy mildew (50 mg/L), 95%; in the series with cucumber downy mildew (100 mg/L), 100%; in the series on cucumber downy mildew (400 mg/L), 100%.
As for `Cc1nc(Cl)cc(N(C)Cc2c(C)nn(-c3ccccc3)c2C)n1` [CK5, reference compound], the “control effect against cucumber anthracnose (%)” value in the series on cucumber anthracnose is 0%. In addition, the “Insecticidal activity against diamond back moth (%)” value in the series on diamond back moth (600 mg/L) is 0%. Also, the “Insecticidal activity against peach aphid (%)” value in series [1] (10 mg/L) amounted to 0%; in series [1] (100 mg/L), 22%; in series [1] (600 mg/L), 100%. For the same molecule, the “control effect against wheat powdery mildew (%)” value with wheat powdery mildew (400 mg/L) amounted to 0%. Moreover, the “control effect against cucumber downy mildew(%)” value in the series with cucumber downy mildew (400 mg/L) was 85%.
For `Cc1ncnc(NCCc2cnn(-c3ccccc3)c2)c1Cl` [Compound 241], the “Insecticidal activity against diamond back moth (%)” value is given as 29% in the series with diamond back moth (10 mg/L), 71% with diamond back moth (100 mg/L) and 100% in the series with diamond back moth (600 mg/L). The “control against diamond back moth (mortality)” value in the series on diamond back moth worked out at 100%. The entries for the “inhibition rate against rice blast” value in the series on rice blast (0.1 ppm), in the series on rice blast (0.3 ppm) and with rice blast (0.9 ppm) were 80%, 80% and 100%, respectively. The “control effect against cucumber downy mildew(%)” value in the series on cucumber downy mildew (12.5 mg/L) is listed as 65%; in the series on cucumber downy mildew (25 mg/L) it was 100%; in the series on cucumber downy mildew (50 mg/L), 100%; in the series on cucumber downy mildew (100 mg/L), 100%; with cucumber downy mildew (400 mg/L), 100%.
Regarding `CCc1ncnc(NCCc2cnn(-c3ccc(Cl)cc3)c2)c1Cl.Cl` [Compound 10932], the figures for the “Insecticidal activity against diamond back moth (%)” value with diamond back moth (10 mg/L), in the series on diamond back moth (100 mg/L) and in the series on diamond back moth (600 mg/L) were 25%, 50% and 100%, respectively. Besides, the “control against diamond back moth (mortality)” value in the series with diamond back moth is reported as 100%. The mortality at 600 ppm in the series with carmine spider mite (setting [2]) is greater than 80%. In addition, the inhibition at 25 ppm with rice blast was greater than 80%.
Take `Cc1nc(C)c(Cl)c(NCCc2cnn(-c3ccc(Cl)cc3Cl)c2)n1` [Compound 1373]: the mortality at 600 ppm with carmine spider mite (setting [2]) was greater than 80%. Moreover, in the series on rice blast, the inhibition at 25 ppm is greater than 80%. Moreover, the “control effect against cucumber downy mildew(%)” value in the series with cucumber downy mildew (12.5 mg/L), with cucumber downy mildew (25 mg/L), in the series on cucumber downy mildew (50 mg/L), in the series on cucumber downy mildew (100 mg/L) and with cucumber downy mildew (400 mg/L) was 100% throughout. Also, the “protectant activity against cucumber downy mildew in vivo” value in the series on cucumber downy mildew (3.125 ppm) came to 85%; with cucumber downy mildew (6.25 ppm), 95%.

Source of the values: patent US9682962B2, “Pyrazolyl pyrimidinamine compound and application thereof” (SHENYANG SINOCHEM AGROCHEMICALS R&D CO., LTD., priority 2013, dated 2017).
